Experimental data reported in patent US6531598B1, “Naphthostyrils” (Hoffmann-La Roche Inc., priority 2001, dated 2003).
Counter-ions that a name gives are not always drawn.

Assays:
human Cyclin E/CDK2 = molecular target: T1, human Cyclin E/CDK2 (Homo sapiens, UniProt P24941); experiment: CDK2 FlashPlate Assay; assay type: biochemical; conditions: inhibition of Rb phosphorylation, 33P-ATP, 25 minutes at room temperature
T1 construct: made in house; host or cells: insect cells
Description: To determine inhibition of CDK2 activity, purified recombinant retinoblastoma (Rb) protein was coated on 96 well FlashPlates (New England Nuclear, Boston, Mass.). […] Recombinant active human Cyclin E/CDK2 complexes were partially purified from extracts of insect cells. […] Plates were incubated for 25 minutes at room temperature with shaking, then washed and counted in the Topcount scintillation counter (Packard Instrument Co., Downers Grove, Ill.). Dilutions of test compounds were tested in duplicate in each assay. The percent inhibition of Rb phosphorylation, which is a measure of the inhibition of CDK2 activity, was determined according to the following formula: [formula]
where “test compound” refers to the average counts per minute of the test duplicates, “nonspecific” refers to the average counts per minute when no Cyclin E/CDK2 was added, and “total” refers to the average counts per minute when no compound was added.

[1] = tested on: MDA-MB435 breast carcinoma cell line; experiment: Tetrazolium dye proliferation assay, MDA-MB435; assay type: cell-based; conditions: MTT, 5 days post addition of test compound, 2000 cells per well
Description: (§1) The cell lines used were MDA-MB435, a breast carcinoma dell line and RKO, a colon carcinoma cell line.
(§2) Teh estrogen receptor negative epithelial breast carcinoma line (MDA-MB435) was purchased from American Type Cell Culture Collection (ATCC; Rockville, Md.) and was grown in the medium recommended by ATCC. For analysis of the test compounds on growth of these cells, the cells were plated at 2000 cells per well in a 96-well tissue culture plate, and were incubated overnight at 37° C. with 5% CO2. The next day, the test compounds were dissolved in 100% dimethyl sulfoxide (DMSO) to yield a 10 mM stock solution. […] The compounds were then serially diluted in medium with 1.2% DMSO. One-fourth final volume of the diluted compounds was transferred to 96 well plates. Test compounds were assayed in duplicate. DMSO was added to a row of “control cells” such that the final concentration of DMSO in each well was 0.3%. Wells to which no cells were added served as the “blank.” Wells to which no inhibitor was added served as “no inhibitor control”. The plates were returned to the incubator, and 5 days post addition of test compound, were analyzed as described below.
(§3) 3-(4,5-Dimethylthiazole-2-yl)-2,5-diphenyl-2H-tetrazolium bromide (thiazolyl blue; MTT) was added to each well to yield a final concentration of 1 mglmL. The plates were then incubated at 37° C. for 3 hours. The plates were centrifuged at 1000 rpm for 5 minutes prior to aspiration of the MTT-containing medium. The MTT-containing medium was then removed and 100 μL 100% EtOH was added to each well to dissolve the resulting formazan metabolite. To ensure complete dissolution, plates were shaken for 15 minutes at room temperature. Absorbencies were read in a microliter plate reader (Molecular Dynamics) at a wavelength of 570 nm with a 650 nm reference. Percent inhibition was calculated by subtracting the absorbency of the blank (no cell) wells from all wells, then subtracting the division of the average absorbency of each test duplicate by the average of the controls from 1.00. Inhibitory concentrations (IC50) were determined from the linear regression of a plot of the logarithm of the concentration versus the percent inhibition.

[2] = tested on: RKO colon carcinoma cell line; experiment: Tetrazolium dye proliferation assay, RKO; assay type: cell-based; conditions: MTT, 5 days post addition of test compound, 500 cell per well
Description: as §1, §2, §3
The colon carcinoma line RKO was also obtained from the ATCC and was tested according to the same protocol provided above except that the cell line RKO was plated at 500 cell per well.

[3] = Homo sapiens, MDA-MB-435, 120 h

| Structure (SMILES) | IC50 (human Cyclin E/CDK2) | IC50 [1, 3] | IC50 ([2]; Colon carcinoma cell, 120 h) | IC50 [1] | IC50 [2] |
| --- | --- | --- | --- | --- | --- |
| CCC(C)c1cc(-c2ccc[nH]2)c2c3c(ccc(F)c13)NC2=O (racemic) [Example 26, (rac)-5-sec-Butyl-6-fluoro-3-(1H-pyrrol-2-yl)-1H-benzo[cd]indol-2-one] | ≤ 10 µM | – | – | – | – |
| O=C1Nc2ccc(F)c3c2C1=C(c1ccc[nH]1)CC3 [Example 6, 6-fluoro-3-(1H-pyrrol-2-yl)-4,5-dihydro-1H-benzo[cd]indol-2-one] | ≤ 10 µM | ≤ 10 µM | ≤ 10 µM | – | – |
| O=C1Nc2ccc(F)c3ccc(-c4ccc[nH]4)c1c23 [Example 7, 6-Fluoro-3-(1H-pyrrol-2-yl)-1H-benzo[cd]indol-2-one] | ≤ 10 µM | ≤ 10 µM | ≤ 10 µM | – | – |
| COc1cc(-c2ccc[nH]2)c2c3c(ccc(F)c13)NC2=O [Example 13, 6-Fluoro-5-methoxy-3-(1H-pyrrol-2-yl)-1H-benzo[cd]indol-2-one] | ≤ 10 µM | ≤ 10 µM | ≤ 10 µM | – | – |
| CCOc1cc(-c2ccc[nH]2)c2c3c(ccc(F)c13)NC2=O [Example 14, 5-Ethoxy-6-fluoro-3-(1H-pyrrol-2-yl)-1H-benzo[cd]indol-2-one] | ≤ 10 µM | – | – | – | – |
| O=C1Nc2ccc(F)c3c(NCCO)cc(-c4ccc[nH]4)c1c23 [Example 15, 6-Fluoro-5-(2-hydroxy-ethylamino)-3-(1H-pyrrol-2-yl)-1H-benzo[cd]indol-2-one] | ≤ 10 µM | ≤ 10 µM | ≤ 10 µM | – | – |
| O=C1Nc2ccc(F)c3c(OCCO)cc(-c4ccc[nH]4)c1c23 [Example 16, 6-Fluoro-5-(2-hydroxyethoxy)-3-(1H-pyrrol-2-yl)-1H-benzo[cd]indol-2-one] | ≤ 10 µM | ≤ 10 µM | ≤ 10 µM | – | – |
| O=C1Nc2ccc(F)c3c(OCCCO)cc(-c4ccc[nH]4)c1c23 [Example 17, 6-Fluoro-5-(3-hydroxy-propoxy)-3-(1H-pyrrol-2-yl)-1H-benzo[cd]indol-2-one] | ≤ 10 µM | – | – | – | – |
| NCCOc1cc(-c2ccc[nH]2)c2c3c(ccc(F)c13)NC2=O [Example 19, 5-(2-Amino-ethoxy)-6-fluoro-3-(1H-pyrrol-2-yl)-1H-benzo[cd]indol-2-one] | – | ≤ 10 µM | ≤ 10 µM | – | – |
| NCCOc1cc(-c2ccc[nH]2)c2c3c(ccc(F)c13)NC2=O [Example 20, 5-(2-Amino-ethoxy)-6-fluoro-3-(1H-pyrrol-2-yl)-1H-benzo[cd]indol-2-one methanesulfonic acid salt] | ≤ 10 µM | – | – | – | – |
| NCCCNc1cc(-c2ccc[nH]2)c2c3c(ccc(F)c13)NC2=O [Example 21, 5-(3-Amino-propylamino)-6-fluoro-3-(1H-pyrrol-2-yl)-1H-benzo[cd]indol-2-one acetic acid salt] | ≤ 10 µM | ≤ 10 µM | ≤ 10 µM | – | – |
| CC(C)(N)CNc1cc(-c2ccc[nH]2)c2c3c(ccc(F)c13)NC2=O [Example 22, 5-(2-Amino-2-methyl-propylamino)-6-fluoro-3-(1H-pyrrol-2-yl)-1H-benzo[cd]indol-2-one] | ≤ 10 µM | ≤ 10 µM | ≤ 10 µM | – | – |
| O=C1Nc2ccc(F)c3c(N4CCOCC4)cc(-c4ccc[nH]4)c1c23 [Example 23, 6-Fluoro-5-morpholin-4-yl-3-(1H-pyrrol-2-yl)-1H-benzo[cd]indol-2-one] | ≤ 10 µM | ≤ 10 µM | ≤ 10 µM | – | – |
| O=C1Nc2ccc(F)c3c(N4CCNCC4)cc(-c4ccc[nH]4)c1c23 [Example 24, 6-Fluoro-5-piperazin-1-yl-3-(1H-pyrrol-2-yl)-1H-benzo[cd]indol-2-one acetic acid salt] | ≤ 10 µM | ≤ 10 µM | ≤ 10 µM | – | – |
| Cc1cc(-c2ccc[nH]2)c2c3c(ccc(F)c13)NC2=O [Example 25, 6-Fluoro-5-methyl-3-(1H-pyrrol-2-yl)-1H-benzo[cd]indol-2-one] | ≤ 10 µM | – | – | – | – |
| CCc1cc(-c2ccc[nH]2)c2c3c(ccc(F)c13)NC2=O [Example 27, 5-Ethyl-6-fluoro-3-(1H-pyrrol-2-yl)-1H-benzo[cd]indol-2-one] | ≤ 10 µM | – | – | – | – |
| O=C1Nc2ccc(F)c3c(N4CCNC4=O)cc(-c4ccc[nH]4)c1c23 [Example 28, 6-Fluoro-5-(2-oxo-imidazolidin-1-yl)-3-(1H-pyrrol-2-yl)-1H-benzo[cd]indol-2-one] | ≤ 10 µM | – | – | – | – |
| CC(=O)NCCNc1cc(-c2ccc[nH]2)c2c3c(ccc(F)c13)NC2=O [Example 29, N-[2-[6-Fluoro-2oxo-3-(1H-pyrrol-2-yl)-1,2-dihydro-benzo[cd]indol-5-ylamino]-ethyl]-acetamide] | ≤ 10 µM | – | – | – | – |
| CCN(CC)CCNc1cc(-c2ccc[nH]2)c2c3c(ccc(F)c13)NC2=O [Example 31, 5-(2-Diethylamino-ethylamino)-6-fluoro-3-(1H-pyrrol-2-yl)-1H-benzo[cd]indol-2-one] | ≤ 10 µM | – | – | – | – |
| O=C1Nc2ccc(F)c3c(N4CC[C@@H](O)C4)cc(-c4ccc[nH]4)c1c23 [Example 32] | ≤ 10 µM | ≤ 10 µM | ≤ 10 µM | – | – |
| O=C1Nc2ccc(F)c3c(N4CCC(O)CC4)cc(-c4ccc[nH]4)c1c23 [Example 33, 6-Fluoro-5-(4-hydroxy-piperidin-1-yl)-3-(1H-pyrrol-2-yl)-1H-benzo[cd]indol-2-one] | ≤ 10 µM | ≤ 10 µM | ≤ 10 µM | – | – |
| O=C1Nc2ccc(F)c3c(N4CCCC(CO)C4)cc(-c4ccc[nH]4)c1c23 (centres unmarked) [Example 34, 6-Fluoro-5-(3-hydroxymethyl-piperidin-1-yl)-3-(1H-pyrrol-2-yl)-1H-benzo[cd]indol-2one] | – | ≤ 10 µM | ≤ 10 µM | – | – |
| O=C1Nc2ccc(F)c3c(N4CCCC(O)C4)cc(-c4ccc[nH]4)c1c23 (centres unmarked) [Example 35, 6-Fluoro-5-(3-hydroxy-piperidin-1-yl)-3-(1H-pyrrol-2-yl)-1H-benzo[cd]indol-2-one] | – | ≤ 10 µM | ≤ 10 µM | – | – |
| O=C1Nc2ccc(F)c3c(SCCO)cc(-c4ccc[nH]4)c1c23 [Example 36, 6-Fluoro-5-(2-hydroxyethylsulfanyl)-3-(1H-pyrrol-2-yl)-1H-benzo[cd]indol-2-one] | ≤ 10 µM | ≤ 10 µM | ≤ 10 µM | – | – |
| O=C1Nc2ccc(F)c3c([S+]([O-])CCO)cc(-c4ccc[nH]4)c1c23 (centres unmarked) [Example 37, 6-Fluoro-5-(2-hydroxy-ethanesulfinyl)-3-(1H-pyrrol-2-yl)-1H-benzo[cd]indol-2-one] | – | – | ≤ 10 µM | – | – |
| O=C1Nc2ccc(F)c3c(S(=O)(=O)CCO)cc(-c4ccc[nH]4)c1c23 [Example 38, 6-Fluoro-5-(2-hydroxy-ethanesulfonyl)-3-(1H-pyrrol-2-yl)-1H-benzo[cd]indol-2-one] | ≤ 10 µM | ≤ 10 µM | ≤ 10 µM | – | – |
| NCCSc1cc(-c2ccc[nH]2)c2c3c(ccc(F)c13)NC2=O [Example 40, 5-(2-Amino-ethylsulfanyl)-6-fluoro-3-(1H-pyrrol-2-yl)-1H-benzo[cd]indol-2-one] | ≤ 10 µM | ≤ 10 µM | ≤ 10 µM | – | – |
| NCC[S+]([O-])c1cc(-c2ccc[nH]2)c2c3c(ccc(F)c13)NC2=O (centres unmarked) [Example 42, 5-(2-Amino-ethanesulfinyl)-6-fluoro-3-(1H-pyrrol-2-yl)-1H-benzo[cd]indol-2-one] | – | ≤ 10 µM | ≤ 10 µM | – | – |
| NCC[S+]([O-])c1cc(-c2ccc[nH]2)c2c3c(ccc(F)c13)NC2=O (centres unmarked) [Example 43, 5-(2-Amino-ethanesulfinyl)-6-fluoro-3-(1H-pyrrol-2-yl)-1H-benzo[cd]indol-2-one hydrochloride salt] | – | – | – | ≤ 10 µM | ≤ 10 µM |
| NCCS(=O)(=O)c1cc(-c2ccc[nH]2)c2c3c(ccc(F)c13)NC2=O [Example 44, 5-(2-Amino-ethanesulfonyl)-6-fluoro-3-(1H-pyrrol-2-yl)-1H-benzo[cd]indol-2-one] | ≤ 10 µM | ≤ 10 µM | ≤ 10 µM | – | – |
